Results from patent publication US20090156577A1, “7-AMINO ALKYLIDENYL-HETEROCYCLIC QUINOLONES AND NAPHTHYRIDONES” (priority 2004, published 2009).
Values after ≈ are worked out from the molar mass of the structure shown. Where two headings read alike, the source gives them in different places.

Test system: pathogenic bacteria
Experiment: MIC by microdilution broth method (NCCLS M7-A4), in vitro antibacterial activity
Type: cell-based
Summary of the method: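 Broth microdilution per NCCLS M7-A4: two-fold serial dilutions in cation-adjusted Mueller-Hinton broth, inoculum about 5×10^4 CFU/well. Trays incubated 16–20 h at 35 °C. MIC read by comparing growth against no-compound growth controls.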

[1] = Staphylococcus aureus, Organism A: Staphylococcus aureus OC4172, read-out: MIC
[2] = Streptococcus pneumoniae, ATCC49619, Organism E: Streptococcus pneumoniae ATCC 49619, read-out: MIC
[3] = Streptococcus pneumoniae, Organism B: fluoroquinolone-resistant clinical isolate of Streptococcus pneumoniae (QRDR amino acid substitutions)
[4] = Streptococcus pneumoniae, Organism C: fluoroquinolone-resistant clinical isolate of Streptococcus pneumoniae (QRDR amino acid substitutions)
[5] = Streptococcus pneumoniae, Organism D: fluoroquinolone-resistant clinical isolate of Streptococcus pneumoniae (QRDR amino acid substitutions)

With COc1c(N2CCC/C(=C/CN)C2)c(F)cc2c(=O)c(C(=O)O)cn(C3CC3)c12 [Compound 389, (Z)-7-[3-(2-Amino-ethylidene)-piperidin-1-yl]-1-cyclopropyl--6-fluoro-8-methoxy-4-oxo-1,4-dihydro-quinoline-3-carboxylic acid] the MIC [1] was ≤ 0.015 µg/mL, the MIC [2] was 0.06 µg/mL (≈ 0.149 µM) and the MIC [3] was 0.5 µg/mL (≈ 1.25 µM). It also gave an MIC [4] of 1 µg/mL (≈ 2.49 µM) and an MIC [5] of 0.5 µg/mL (≈ 1.25 µM).
Compound COc1c(N2CCC/C(=C\CN)C2)c(F)cc2c(=O)c(C(=O)O)cn(C3CC3)c12 [Compound 390, (E)-7-[3-(2-Amino-ethylidene)-piperidin-1-yl]-1-cyclopropyl-6-fluoro-8-methoxy-4-oxo-1,4-dihydro-quinoline-3-carboxylic acid] has an MIC [1] of 0.06 µg/mL (≈ 0.149 µM), an MIC [2] of 0.5 µg/mL (≈ 1.25 µM) and an MIC [4] of 2 µg/mL (≈ 4.98 µM). The MIC [5] was 4 µg/mL (≈ 9.96 µM).
In the case of COc1c(N2CC(=C(C)CN)C2)c(F)cc2c(=O)c(C(=O)O)cn(C3CC3)c12 [Compound 391, 7-[3-(2-Amino-1-methyl-ethylidene)-azetidin-1-yl]-1-cyclopropyl-6-fluoro-8-methoxy-4-oxo-1,4-dihydro-quinoline-3-carboxylic acid], the MIC [1] is reported as 0.06 µg/mL (≈ 0.155 µM), the MIC [2] is reported as 2 µg/mL (≈ 5.16 µM) and the MIC [3] is reported as 8 µg/mL (≈ 20.6 µM). For the same compound, the MIC [4] was > 16 µg/mL and the MIC [5] was 8 µg/mL (≈ 20.6 µM).
Compound COc1c(N2CCC/C(=C(/C)CN)C2)c(F)cc2c(=O)c(C(=O)O)cn(C3CC3)c12 [Compound 392, (E)-7-[3-(2-Amino-1-methyl-ethylidene)-piperidin-1-yl]-1-cyclopropyl-6-fluoro-8-methoxy-4-oxo-1,4-dihydro-quinoline-3-carboxylic acid] has an MIC [1] of 0.25 µg/mL (≈ 0.602 µM), an MIC [2] of 1 µg/mL (≈ 2.41 µM) and an MIC [3] of 16 µg/mL (≈ 38.5 µM). For the same compound, the MIC [4] was > 16 µg/mL and the MIC [5] was 8 µg/mL (≈ 19.3 µM).
Compound COc1c(N2CCC/C(=C(/Cl)CN)CC2)c(F)cc2c(=O)c(C(=O)O)cn(C3CC3)c12 [Compound 393, (Z)-7-[4-(2-Amino-1-chloro-ethylidene)-azepan-1-yl]-1-cyclopropyl-6-fluoro-8-methoxy-4-oxo-1,4-dihydro-quinoline-3-carboxylic acid] has an MIC [1] of 0.25 µg/mL (≈ 0.556 µM), an MIC [2] of 0.5 µg/mL (≈ 1.11 µM) and an MIC [4] of 8 µg/mL (≈ 17.8 µM). For the same compound, the MIC [5] was 2 µg/mL (≈ 4.45 µM).
COc1c(N2CCC/C(=C(\Cl)CN)CC2)c(F)cc2c(=O)c(C(=O)O)cn(C3CC3)c12 [Compound 394, (E)-7-[4-(2-Amino-1-chloro-ethylidene)-azepan-1-yl]-1-cyclopropyl-6-fluoro-8-methoxy-4-oxo-1,4-dihydro-quinoline-3-carboxylic acid] showed an MIC [1] of 0.03 µg/mL (≈ 0.0667 µM), an MIC [2] of 0.5 µg/mL (≈ 1.11 µM) and an MIC [3] of 1 µg/mL (≈ 2.22 µM). For the same compound, the MIC [4] was 4 µg/mL (≈ 8.89 µM) and the MIC [5] was 1 µg/mL (≈ 2.22 µM).
In the case of NC/C(F)=C1\CCCN(c2c(F)cc3c(=O)c(C(=O)O)cn(C4CC4)c3c2OC(F)F)C1 [Compound 395, (Z)-7-[3-(2-Amino-1-fluoro-ethylidene)-piperidin-1-yl]-1-cyclopropyl-8-difluoromethoxy-6-fluoro-4-oxo-1,4-dihydro-quinoline-3-carboxylic acid], the MIC [1] is reported as 0.06 µg/mL (≈ 0.132 µM), the MIC [2] is reported as 0.5 µg/mL (≈ 1.1 µM) and the MIC [3] is reported as 4 µg/mL (≈ 8.78 µM). For the same compound, the MIC [4] was 8 µg/mL (≈ 17.6 µM) and the MIC [5] was 0.5 µg/mL (≈ 1.1 µM).
NC/C=C1/CCCN(c2c(F)cc3c(=O)c(C(=O)O)cn(C4CC4)c3c2OC(F)F)C1 [Compound 396, (Z)-7-[3-(2-Amino-ethylidene)-piperidin-1-yl]-1-cyclopropyl-8-difluoromethoxy-6-fluoro-4-oxo-1,4-dihydro-quinoline-3-carboxylic acid] gave an MIC [1] of 0.03 µg/mL (≈ 0.0686 µM), an MIC [2] of 0.25 µg/mL (≈ 0.572 µM) and an MIC [3] of 2 µg/mL (≈ 4.57 µM). It also gave an MIC [4] of 4 µg/mL (≈ 9.14 µM) and an MIC [5] of 0.5 µg/mL (≈ 1.14 µM).
In the case of NC/C=C1\CCCN(c2c(F)cc3c(=O)c(C(=O)O)cn(C4CC4)c3c2OC(F)F)C1 [Compound 397, (E)-7-[3-(2-Amino-ethylidene)-piperidin-1-yl]-1-cyclopropyl-8-difluoromethoxy-6-fluoro-4-oxo-1,4-dihydro-quinoline-3-carboxylic acid], the MIC [1] is reported as 0.06 µg/mL (≈ 0.137 µM), the MIC [2] is reported as 0.5 µg/mL (≈ 1.14 µM) and the MIC [4] is reported as 8 µg/mL (≈ 18.3 µM). The MIC [5] was 2 µg/mL (≈ 4.57 µM).
For C[C@H]1COc2c(N3CCC/C(=C(\F)CN)C3)c(F)cc3c(=O)c(C(=O)O)cn1c23 [Compound 398, (E)-9-[3-(2-Amino-1-fluoro-ethylidene)-piperidin-1-yl]-8-fluoro-(3S)-3-methyl-6-oxo-2,3-dihydro-6H-1-oxa-3a-aza-phenalene-5-carboxylic acid], the MIC [1] was ≤ 0.015 µg/mL, the MIC [2] was 0.03 µg/mL (≈ 0.074 µM) and the MIC [3] was 0.25 µg/mL (≈ 0.617 µM). It also gave an MIC [4] of 0.5 µg/mL (≈ 1.23 µM) and an MIC [5] of 1 µg/mL (≈ 2.47 µM).
With C[C@H]1COc2c(N3CCC/C(=C(/F)CN)C3)c(F)cc3c(=O)c(C(=O)O)cn1c23 [Compound 399, (Z)-9-[3-(2-Amino-1-fluoro-ethylidene)-piperidin-1-yl]-8-fluoro-(3S)-3-methyl-6-oxo-2,3-dihydro-6H-1-oxa-3a-aza-phenalene-5-carboxylic acid] the MIC [1] was 0.5 µg/mL (≈ 1.23 µM), the MIC [2] was 2 µg/mL (≈ 4.93 µM) and the MIC [3] was 4 µg/mL (≈ 9.87 µM). The MIC [4] was > 16 µg/mL and the MIC [5] was > 16 µg/mL.
C[C@H]1COc2c(N3CCC/C(=C(\Cl)CN)C3)c(F)cc3c(=O)c(C(=O)O)cn1c23 [Compound 400, (E)-9-[3-(2-Amino-1-chloro-ethylidene)-piperidin-1-yl]-8-fluoro-(3S)-3-methyl-6-oxo-2,3-dihydro-6H-1-oxa-3a-aza-phenalene-5-carboxylic acid] was tested, and the MIC [1] was ≤ 0.015 µg/mL, the MIC [2] was 0.06 µg/mL (≈ 0.142 µM) and the MIC [3] was 0.25 µg/mL (≈ 0.593 µM). For the same compound, the MIC [4] was 0.5 µg/mL (≈ 1.19 µM) and the MIC [5] was 0.5 µg/mL (≈ 1.19 µM).
In the case of C[C@H]1COc2c(N3CCC/C(=C\CN)C3)c(F)cc3c(=O)c(C(=O)O)cn1c23 [Compound 401, (E)-9-[3-(2-Amino-ethylidene)-piperidin-1-yl]-8-fluoro-(3S)-3-methyl-6-oxo-2,3-dihydro-6H-1-oxa-3a-aza-phenalene-5-carboxylic acid], the MIC [1] is reported as 1 µg/mL (≈ 2.58 µM), the MIC [2] is reported as 8 µg/mL (≈ 20.6 µM) and the MIC [4] is reported as > 16 µg/mL. The MIC [5] was > 16 µg/mL.
Work on C[C@H]1COc2c(N3CCC/C(=C/CN)C3)c(F)cc3c(=O)c(C(=O)O)cn1c23 [Compound 402, (Z)-9-[3-(2-Amino-ethylidene)-piperidin-1-yl]-8-fluoro-(3S)-3-methyl-6-oxo-2,3-dihydro-6H-1-oxa-3a-aza-phenalene-5-carboxylic acid] yielded an MIC [1] of 0.25 µg/mL (≈ 0.645 µM), an MIC [2] of 2 µg/mL (≈ 5.16 µM) and an MIC [3] of 16 µg/mL (≈ 41.3 µM). For the same compound, the MIC [4] was > 16 µg/mL and the MIC [5] was > 16 µg/mL.
Compound C/C(CN)=C1\CCCN(c2c(F)cc3c(=O)c(C(=O)O)cn4c3c2OC[C@@H]4C)C1 [Compound 404, (Z)-9-[3-(2-Amino-1-methyl-ethylidene)-piperidin-1-yl]-8-fluoro-(3S)-3-methyl-6-oxo-2,3-dihydro-6H-1-oxa-3a-aza-phenalene-5-carboxylic acid] has an MIC [1] of 0.12 µg/mL (≈ 0.299 µM), an MIC [2] of 0.5 µg/mL (≈ 1.25 µM) and an MIC [3] of 4 µg/mL (≈ 9.96 µM). For the same compound, the MIC [4] was 16 µg/mL (≈ 39.9 µM) and the MIC [5] was > 16 µg/mL.
For COc1c(N2CCC/C(=C(\F)CN)C2)c(F)cc2c(=O)c(C(=O)O)cn([C@@H]3C[C@@H]3F)c12 [Compound 405, (E)-7-[3-(2-Amino-1-fluoro-ethylidene)-piperidin-1-yl]-6-fluoro-(1R,2S)-1-(2-fluoro-cyclopropyl)-8-methoxy-4-oxo-1,4-dihydro-quinoline-3-carboxylic acid], the MIC [1] was ≤ 0.015 µg/mL, the MIC [2] was ≤ 0.25 µg/mL and the MIC [3] was ≤ 0.12 µg/mL. For the same compound, the MIC [4] was 0.25 µg/mL (≈ 0.572 µM) and the MIC [5] was 0.25 µg/mL (≈ 0.572 µM).
COc1c(N2CCC/C(=C(/F)CN)C2)c(F)cc2c(=O)c(C(=O)O)cn([C@@H]3C[C@@H]3F)c12 [Compound 406, (Z)-7-[3-(2-Amino-1-fluoro-ethylidene)-piperidin-1-yl]-6-fluoro-(1R,2S)-1-(2-fluoro-cyclopropyl)-8-methoxy-4-oxo-1,4-dihydro-quinoline-3-carboxylic acid] gave an MIC [1] of 0.06 µg/mL (≈ 0.137 µM), an MIC [2] of 0.5 µg/mL (≈ 1.14 µM) and an MIC [3] of 8 µg/mL (≈ 18.3 µM). For the same compound, the MIC [4] was 8 µg/mL (≈ 18.3 µM) and the MIC [5] was 2 µg/mL (≈ 4.57 µM).
